# Test results as given in patent US20050181376A1, “Antisense modulation of microsomal triglyceride transfer protein expression” (ISIS Pharmaceuticals, Inc., priority 2001, published 2005).
# Strand notation (5' to 3'): a small letter for the sugar, then the base; units joined by * are phosphorothioate-linked, units joined directly phosphodiester-linked; [ ] holds rarer units or linkages, { } end groups; capitals alone tell only the bases. e = 2'-O-(2-methoxyethyl) (MOE); [5mC] = 5-methylcytosine; d = 2'-deoxy (DNA)
# Columns and labels:
# [1] = tested on: human microsomal triglyceride transfer protein mRNA; assay: Antisense inhibition of human microsomal triglyceride transfer protein mRNA levels, quantitative real-time PCR; settings: averages from two experiments
# [2] = tested on: mouse microsomal triglyceride transfer protein mRNA; assay: Antisense inhibition of mouse microsomal triglyceride transfer protein mRNA levels in primary hepatocytes, quantitative real-time PCR; format: cell-based; set-up: concentration or dose not given beside the values; settings: averages from two experiments
# Description: Primary mouse hepatocytes were prepared from CD-1 mice purchased from Charles River Labs (Wilmington, Mass.) and were routinely cultured in Hepatocyte Attachment Media (Gibco) supplemented with 10% Fetal Bovine Serum (Gibco/Life Technologies, Gaithersburg, Md.), 250 nM dexamethasone (Sigma), and 10 nM bovine insulin (Sigma). Cells were seeded into 96-well plates (Falcon-Primaria #3872) at a density of 10000 cells/well for use in RT-PCR analysis.
# Cells were harvested 16-24 hours after oligonucleotide treatment.
# All cytidine residues are 5-methylcytidines. […] Data are averages from two experiments. If present, “N.D.” indicates “no data”.
Substance,% INHIB (inhibition of human microsomal triglyceride transfer protein mRNA levels) [1] [%],% INHIB (inhibition of mouse microsomal triglyceride transfer protein mRNA levels) [2]
144408 (eT*e[5mC]*eA*eA*e[5mC]*dT*dG*d[5mC]*dA*dT*d[5mC]*d[5mC]*dA*dG*dT*eG*e[5mC]*e[5mC]*e[5mC]*eA; antisense) [compound 144408],30,–
144409 (eT*e[5mC]*eA*eT*eA*dT*dT*dG*dA*d[5mC]*d[5mC]*dA*dG*d[5mC]*dA*eA*eT*e[5mC]*e[5mC]*eT; antisense) [compound 144409],31,–
144505 (eA*eG*e[5mC]*e[5mC]*eT*dT*dG*dT*d[5mC]*d[5mC]*dA*dT*d[5mC]*dT*dG*e[5mC]*eA*eT*eG*e[5mC]; antisense) [compound 144505],–,24%
144506 (e[5mC]*eA*e[5mC]*eA*eT*d[5mC]*d[5mC]*dG*dG*d[5mC]*d[5mC]*dA*d[5mC]*dT*dA*eG*eG*e[5mC]*eT*e[5mC]; antisense) [compound 144506],–,0%
144507 (eT*e[5mC]*eT*e[5mC]*eA*dG*dA*dG*dT*dT*d[5mC]*dT*dG*dT*dT*eG*eA*eT*eG*eG; antisense) [compound 144507],–,0%
144508 (e[5mC]*eG*eT*e[5mC]*eA*dT*dA*dG*d[5mC]*dA*dT*dA*dT*d[5mC]*dG*eT*eT*e[5mC]*eT*eG; antisense) [compound 144508],–,0%
144509 (eA*e[5mC]*eT*eG*eT*dG*d[5mC]*dT*d[5mC]*dT*d[5mC]*dA*dG*dA*dG*eA*eG*e[5mC]*eA*eA; antisense) [compound 144509],–,0%
144510 (eG*eG*eT*e[5mC]*eT*dT*d[5mC]*dT*d[5mC]*d[5mC]*dT*dG*dA*dA*dT*eA*eG*eG*eT*eT; antisense) [compound 144510],–,0%
"ATTCTGACACAGCTTCCTGA (all phosphorothioate, sugars by position and methylation of C not given here; 2'-MOE wings and deoxy gap) [ISIS 144486, 2′-MOE gapmer phosphorothioate antisense oligonucleotide to mouse MTP]",–,at least 30%
"CACCTGCCACTTGCTTCCCG (all phosphorothioate, sugars by position and methylation of C not given here; 2'-MOE wings and deoxy gap) [ISIS 144479, 2′-MOE gapmer phosphorothioate antisense oligonucleotide to mouse MTP]",–,at least 30%
"CAGAATGCCAGAGCCAGAGT (all phosphorothioate, sugars by position and methylation of C not given here; 2'-MOE wings and deoxy gap) [ISIS 144495, 2′-MOE gapmer phosphorothioate antisense oligonucleotide to mouse MTP]",–,at least 30%
"CAGCCTCAGCATACTTCAGA (all phosphorothioate, sugars by position and methylation of C not given here; 2'-MOE wings and deoxy gap) [ISIS 144488, 2′-MOE gapmer phosphorothioate antisense oligonucleotide to mouse MTP]",–,at least 30%
"CCCAGCACCTGGTTTGCCGT (all phosphorothioate, sugars by position and methylation of C not given here; 2'-MOE wings and deoxy gap) [ISIS 144477, 2′-MOE gapmer phosphorothioate antisense oligonucleotide to mouse MTP]",–,at least 30%
"CCCTGGTCTCTTCTGCAAGC (all phosphorothioate, sugars by position and methylation of C not given here; 2'-MOE wings and deoxy gap) [ISIS 144478, 2′-MOE gapmer phosphorothioate antisense oligonucleotide to mouse MTP]",–,at least 30%
"CCCTTTCACCACGCTGACAG (all phosphorothioate, sugars by position and methylation of C not given here; 2'-MOE wings and deoxy gap) [ISIS 144500, 2′-MOE gapmer phosphorothioate antisense oligonucleotide to mouse MTP]",–,at least 30%
"CCTGGAGTATGATACTGCTG (all phosphorothioate, sugars by position and methylation of C not given here; 2'-MOE wings and deoxy gap) [ISIS 144484, 2′-MOE gapmer phosphorothioate antisense oligonucleotide to mouse MTP]",–,at least 30%
"CGCTGACAGGGTCGCCGGAT (all phosphorothioate, sugars by position and methylation of C not given here; 2'-MOE wings and deoxy gap) [ISIS 144499, 2′-MOE gapmer phosphorothioate antisense oligonucleotide to mouse MTP]",–,at least 30%
"CTCGCGATACCACAGACTGA (all phosphorothioate, sugars by position and methylation of C not given here; 2'-MOE wings and deoxy gap) [ISIS 144502, 2′-MOE gapmer phosphorothioate antisense oligonucleotide to mouse MTP]",–,at least 30%
"CTCTGATGTCGTTGCTTGCA (all phosphorothioate, sugars by position and methylation of C not given here; 2'-MOE wings and deoxy gap) [ISIS 144485, 2′-MOE gapmer phosphorothioate antisense oligonucleotide to mouse MTP]",–,at least 30%
"CTGCAATTAAGCCTTCCAGC (all phosphorothioate, sugars by position and methylation of C not given here; 2'-MOE wings and deoxy gap) [ISIS 144496, 2′-MOE gapmer phosphorothioate antisense oligonucleotide to mouse MTP]",–,at least 30%
"GACCACCCTGGATCTCCATA (all phosphorothioate, sugars by position and methylation of C not given here; 2'-MOE wings and deoxy gap) [ISIS 144501, 2′-MOE gapmer phosphorothioate antisense oligonucleotide to mouse MTP]",–,at least 30%
"GCTCGAGGACCTGTCCCACA (all phosphorothioate, sugars by position and methylation of C not given here; 2'-MOE wings and deoxy gap) [ISIS 144480, 2′-MOE gapmer phosphorothioate antisense oligonucleotide to mouse MTP]",–,at least 30%
"GTGGCTGACGGGCCCTTCTC (all phosphorothioate, sugars by position and methylation of C not given here; 2'-MOE wings and deoxy gap) [ISIS 144489, 2′-MOE gapmer phosphorothioate antisense oligonucleotide to mouse MTP]",–,at least 30%
"GTTATCACCACAGCCACCCG (all phosphorothioate, sugars by position and methylation of C not given here; 2'-MOE wings and deoxy gap) [ISIS 144503, 2′-MOE gapmer phosphorothioate antisense oligonucleotide to mouse MTP]",–,at least 30%
"TGACATGCCAGCATAAGAGT (all phosphorothioate, sugars by position and methylation of C not given here; 2'-MOE wings and deoxy gap) [ISIS 144498, 2′-MOE gapmer phosphorothioate antisense oligonucleotide to mouse MTP]",–,at least 30%
"TGCACAACGGTGAGCATGTA (all phosphorothioate, sugars by position and methylation of C not given here; 2'-MOE wings and deoxy gap) [ISIS 144492, 2′-MOE gapmer phosphorothioate antisense oligonucleotide to mouse MTP]",–,at least 30%
"TTCCAGTGCTCCGCCAGAGA (all phosphorothioate, sugars by position and methylation of C not given here; 2'-MOE wings and deoxy gap) [ISIS 144481, 2′-MOE gapmer phosphorothioate antisense oligonucleotide to mouse MTP]",–,at least 30%
